Data as given in patent US5770617A, “Terbenzimidazoles useful as antifungal agents” (Rutgers, The State University of New Jersey, priority 1997, dated 1998).
“Also recorded” adds a separate entry of the source.

Assays:
human topoisomerase I = target: T1, human topoisomerase I (Homo sapiens, UniProt P11387); settings: cited from earlier work
T1 construct: made in house; host or cells: Escherichia coli BL21 (DE3) harboring PET1B
T1 sequence (P11387 1-765): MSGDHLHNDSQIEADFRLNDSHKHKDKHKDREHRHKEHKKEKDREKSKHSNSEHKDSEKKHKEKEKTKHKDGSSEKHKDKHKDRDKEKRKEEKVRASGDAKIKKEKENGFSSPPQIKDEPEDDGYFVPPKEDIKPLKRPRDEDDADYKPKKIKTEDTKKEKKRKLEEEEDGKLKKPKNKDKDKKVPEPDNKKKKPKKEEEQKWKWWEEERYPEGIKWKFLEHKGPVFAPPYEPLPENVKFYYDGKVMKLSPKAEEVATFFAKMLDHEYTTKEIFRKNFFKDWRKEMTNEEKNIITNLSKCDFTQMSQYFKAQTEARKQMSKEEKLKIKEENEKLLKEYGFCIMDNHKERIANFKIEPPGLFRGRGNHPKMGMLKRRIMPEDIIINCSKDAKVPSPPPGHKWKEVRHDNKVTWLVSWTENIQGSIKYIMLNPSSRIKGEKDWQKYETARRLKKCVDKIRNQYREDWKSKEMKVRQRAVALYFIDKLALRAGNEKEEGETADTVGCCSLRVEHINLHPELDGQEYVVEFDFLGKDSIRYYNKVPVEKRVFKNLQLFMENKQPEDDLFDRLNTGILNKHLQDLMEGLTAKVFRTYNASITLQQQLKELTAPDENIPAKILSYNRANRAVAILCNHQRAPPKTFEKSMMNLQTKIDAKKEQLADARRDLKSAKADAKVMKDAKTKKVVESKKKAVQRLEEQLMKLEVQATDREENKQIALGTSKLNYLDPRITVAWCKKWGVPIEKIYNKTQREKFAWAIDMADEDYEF

[1] = target: T2, Aspergillus topoisomerase I (Aspergillus nidulans, UniProt Q5BGS7); assay: Topoisomerase I cleavage assay, Aspergillus enzyme; type: biochemical; settings: DNA cleavage assay
T2 construct: about 105 kDa by phosphate transfer
T2 sequence (Q5BGS7 1-871): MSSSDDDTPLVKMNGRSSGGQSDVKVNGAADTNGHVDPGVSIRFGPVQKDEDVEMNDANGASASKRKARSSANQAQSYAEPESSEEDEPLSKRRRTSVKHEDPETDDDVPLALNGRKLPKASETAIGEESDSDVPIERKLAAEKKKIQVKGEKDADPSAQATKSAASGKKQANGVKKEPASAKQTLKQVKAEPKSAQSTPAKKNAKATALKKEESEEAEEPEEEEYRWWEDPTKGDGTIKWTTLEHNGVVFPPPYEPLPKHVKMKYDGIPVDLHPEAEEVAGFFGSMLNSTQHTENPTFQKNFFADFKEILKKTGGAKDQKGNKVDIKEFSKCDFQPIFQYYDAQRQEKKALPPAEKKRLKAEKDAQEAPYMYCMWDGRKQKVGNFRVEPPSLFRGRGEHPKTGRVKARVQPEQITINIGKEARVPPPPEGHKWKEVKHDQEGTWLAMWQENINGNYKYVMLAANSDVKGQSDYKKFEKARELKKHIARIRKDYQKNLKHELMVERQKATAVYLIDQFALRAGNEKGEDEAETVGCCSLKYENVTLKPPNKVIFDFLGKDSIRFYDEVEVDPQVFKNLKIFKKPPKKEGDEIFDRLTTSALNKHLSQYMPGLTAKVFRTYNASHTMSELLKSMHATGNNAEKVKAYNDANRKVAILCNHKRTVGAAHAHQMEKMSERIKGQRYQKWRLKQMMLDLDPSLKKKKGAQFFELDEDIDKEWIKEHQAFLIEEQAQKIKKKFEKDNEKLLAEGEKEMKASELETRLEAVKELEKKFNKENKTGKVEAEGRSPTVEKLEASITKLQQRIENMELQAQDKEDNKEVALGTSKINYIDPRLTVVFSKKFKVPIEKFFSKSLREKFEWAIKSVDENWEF
Experimental: Two liters of YG medium (0.5% yeast extract and 2% glucose) were inoculated with approximately 5×10^8 conidia/ml. After 16 hours of growth at 37° C., the mycelia were collected, washed with Buffer I (50 mM Tris-HCl, pH 7.7, 1 mM EDTA, 1 mM EGTA, 10% glycerol, 1 mM phenylmethylsulfonyl fluoride and 1 mM 2-mercaptoethanol), and quickly chilled in liquid nitrogen. The frozen mycelia (approximately 20 grams) were ground to powder and resuspended in 300 ml of Buffer I. The lysate was centrifuged at 10K rpm in a Sorval HB3 Rotor for 15 minutes to remove cell debris. The supernatant was made 6% in polyethylene glycol (v/v) and 1M NaCl. After one hour on ice with gentle stirring, the solution was centrifuged at 14K rpm in a Sorvall Rotor for 30 minutes to remove nucleic acids.
Subsequent steps in purification were the same as described previously for purification of recombinant human DNA topoisomerase I (B. Gatto et al., Cancer Res., 56, 2795 (1996)). Briefly, the supernatant was chromatographed directly onto a hydroxyapatite Bio-gel HTP (BioRad Laboratories, Richmond, Calif.) column. Fractions containing relaxation activity were pooled, diluted and then loaded onto a BioRex70 column (BioRad Laboratories, Richmond, Calif.). The column was developed with a linear gradient from 0.2 to 1M KCl. The peak fractions were pooled and dialyzed overnight at 4° C. against 30 mM potassium phosphate, 50% glycerol (v/v), 0.5 mM EDTA, and 1 mM DTT. Recombinant human topoisomerase I was purified from Escherichia coli BL21 (DE3) harboring PET1B as described previously (Gatto et al., Cancer Res., 56, 2795 (1996)).
DNA topoisomerase I cleavage assays were performed as described by Y.-H. Hsiang et al., J. Biol. Chem., 260, 14873 (1985). YEpG DNA was linearized with BamHI and then 3 '-end-labeled with Klenow polymerase and α[-^32 P]dCTP. Following phenol extraction and ethanol precipitation, the labeled DNA was resuspended in 10 mM Tris, pH 8.0, and 1 mM EDTA. The DNA cleavage assay was done in a reaction mixture (20 μl) containing 40 mM Tris-HCl, pH 7.8, 100 mM KCl, 10 mM MgCl2, 0.5 mM dithiothreitol, 0.5 mM EDTA, 30 μg/ml bovine serum albumin, 20 ng of labeled YEpG DNA, and […] of Aspergillus or human topoisomerase I diluted to various extents. Following incubation at 23° C. for 15 minutes, the reactions were terminated by the addition of SDS (final concentration 1%) and proteinase K (final concentration 200 μg/ml). Proteinase K treatment continued at 37° C. for another 1 hour. The terminated reactions were either alkali-denatured and then loaded (alkaline loading) or loaded directedly in neutral loading buffer (neutral loading) onto a 1% agarose gel in neutral TPE electrophoresis solution. Gel drying and autoradiography were performed as described by Hsiang et al., cited above.

[2] = target: T3, calf thymus topoisomerase I (Bos taurus, UniProt F1MN93); assay: Topoisomerase I-mediated DNA cleavage assay (calf thymus enzyme); type: biochemical; settings: concentration relative to Hoechst 33342 (arbitrarily 1) producing the same cleavage on plasmid DNA; calf thymus topoisomerase I
T3 construct: DNA topoisomerase I was purified from calf thymus gland as reported previously; from tissue; host or cells: calf thymus gland
T3 sequence (F1MN93 1-767): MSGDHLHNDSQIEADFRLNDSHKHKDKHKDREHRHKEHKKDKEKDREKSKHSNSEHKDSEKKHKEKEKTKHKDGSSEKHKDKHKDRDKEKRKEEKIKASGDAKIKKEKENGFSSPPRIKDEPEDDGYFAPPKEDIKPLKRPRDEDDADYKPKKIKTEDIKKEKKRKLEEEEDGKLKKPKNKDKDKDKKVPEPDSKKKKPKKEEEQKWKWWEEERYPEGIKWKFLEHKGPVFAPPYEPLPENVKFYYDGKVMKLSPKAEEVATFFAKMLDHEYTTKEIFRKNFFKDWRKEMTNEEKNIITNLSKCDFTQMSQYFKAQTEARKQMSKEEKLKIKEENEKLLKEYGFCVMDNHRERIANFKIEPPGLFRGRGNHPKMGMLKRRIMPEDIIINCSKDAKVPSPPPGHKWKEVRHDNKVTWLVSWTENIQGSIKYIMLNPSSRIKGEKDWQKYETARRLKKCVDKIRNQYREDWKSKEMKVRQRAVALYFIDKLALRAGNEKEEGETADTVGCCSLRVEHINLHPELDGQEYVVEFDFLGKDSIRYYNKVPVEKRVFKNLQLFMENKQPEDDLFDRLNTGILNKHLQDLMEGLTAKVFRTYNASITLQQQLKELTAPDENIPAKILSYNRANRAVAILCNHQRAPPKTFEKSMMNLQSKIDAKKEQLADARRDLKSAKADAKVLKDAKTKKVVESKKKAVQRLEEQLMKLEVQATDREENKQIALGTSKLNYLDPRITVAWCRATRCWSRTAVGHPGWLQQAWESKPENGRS
Description: A. Topoisomerase I-Mediated DNA Cleavage Assays
DNA topoisomerase I was purified from calf thymus gland as reported previously by B. D. Halligan et al., J. Biol. Chem., 260, 2475 (1985).
Plasmid YEpG was also purified by the alkali lysis method followed by phenol deproteination and CsCl/ethidium isopycnic centrifugation as described by T. Maniatis et al., Molecular Cloning, A Laboratory Manual, Cold Spring Harbor Labs, N.Y. (1982) at pages 149-185. The end-labeling of the plasmid was accomplished as previously described by L. F. Liu et al., J. Biol. Chem., 258, 15365 (1983). The cleavage assays were performed as previously reported by A. Y. Chen et al., Cancer Res., 53, 1332 (1993). Human topoisomerase I was isolated as a recombinant fusion protein using a T7 expression system.

Structure (SMILES)	inhibition of human topoisomerase I, in words (known / previously disclosed) (human topoisomerase I)	inhibition (poisoning) of Aspergillus topoisomerase I, in words [1]	Topo I-mediated DNA cleavage (REC, Relative Effective Concentration) [2]
N=C(N)c1ccc(N=NNc2ccc(C(=N)N)cc2)cc1 [Berenil, berenil]	inactive	inactive	–
c1ccc2[nH]c(-c3ccc4[nH]c(-c5ccc6[nH]cnc6c5)nc4c3)nc2c1 [Compound 10, 2-[2'-(Benzimidazol-5"-yl)benzimidazol-5'-yl]benzimidazole]	–	–	1.1
c1ccc(-c2ccc3[nH]c(-c4ccc5[nH]c(-c6ccc7[nH]cnc7c6)nc5c4)nc3c2)nc1 [Compound 14, 5-(2-Pyridyl)-2-[2'-(benzimidazol-5"-yl)benzimidazol-5'-yl]benzimidazole]	–	–	3.3
c1cncc(-c2ccc3[nH]c(-c4ccc5[nH]c(-c6ccc7[nH]cnc7c6)nc5c4)nc3c2)c1 [Compound 15, 5-(3-Pyridyl)-2-[2'-(benzimidazol-5"-yl)benzimidazol-5'-yl]benzimidazole]	–	–	2
c1cc(-c2ccc3[nH]c(-c4ccc5[nH]c(-c6ccc7[nH]cnc7c6)nc5c4)nc3c2)ccn1 [Compound 16, 5-(4-Pyridyl)-2-[2'-(benzimidazol-5"-yl)benzimidazol-5'-yl]benzimidazole]	–	–	2
N#Cc1ccc2[nH]c(-c3ccc4[nH]cnc4c3)nc2c1 [Compound 19, 5-Cyano-2-(benzimidazol-5'-yl)benzimidazole]	–	–	1000
Clc1ccc(-c2ccc3[nH]c(-c4ccc5[nH]c(-c6ccc7[nH]cnc7c6)nc5c4)nc3c2)cc1 [JSKIV-47, 5-(p-Chlorophenyl)-2-[2'-(benzimidazol-5"-yl)benzimidazol-5'-yl]-benzimidazole]	–	–	10
Clc1ccc2[nH]c(-c3ccc4[nH]c(-c5ccc6[nH]cnc6c5)nc4c3)nc2c1 [JSKIV-68, 5-Chloro-2-[2'-(benzimidazol-5"-yl)benzimidazol-5'-yl]-benzimidazole]	–	–	1
COc1ccc(-c2nc3ccc(C(F)(F)F)cc3[nH]2)cc1 [QS/II/50]	–	None of the mono-benzimidazoles, including QS/II/50, QS/II/51, QS/II/59A, an QS/II/9, exhibited any inhibitory effect	–
CCOc1ccc(-c2nc3ccc(-c4nc5cc(CCCN(C)C)ccc5[nH]4)cc3[nH]2)cc1 [compound 2 wherein n is 3]	–	selective sensitivity	–
COc1cc2cc3c4cc(OC)c(OC)cc4cc[n+]3c(C)c2cc1OC [coralyne]	highly potent inhibitors	completely resistant; also recorded: did not inhibit Aspergillus topoisomerase I to any significant extent	–
